From patent EP0472800A1, “Metoprololnicotinic acid ester, method of preparation and pharmaceutical use” (Sandmeier, Peter, Dr., priority 1990, dated 1992)
Where a name gives a salt, the structure may show the parent alone.

Design: species or system Hunden
Details: dog, in vivo, 0 min
Text: Die verhältnismässig einfache Synthese führt zu einer bemerkenswert hohen Ausbeute des erfinderischen Moleküls, der Metoprololnicotinsäure. Die an Hunden experimentierte Prodrugwirkung in drei verschiedenenen Dosen ergab folgende Retardwerte: (µg freie Base im Zielkompartiment)
Das Resultat zeigt, dass eine relativ hohe Konzentration im Plasma bis zu vier Stunden erwartet werden kann, was die deutlich retardierte Prodrugwirkung beweist. Die Dosis C zeigt unter anderem, dass auch kleine Konzentrationen einen langanhaltenden Spiegel zeigen.

freie Base im Zielkompartiment (Retardwerte): 0 µg
SMILES: COCCc1ccc(OCC(CNC(C)C)OC(=O)c2cccnc2)cc1 (racemic) [Metoprololnicotinsäure, Metoprololnicotinsäureester-HCl]
